From patent US9302988B2, “Fluoromethyl-substituted pyrrole carboxamides” (GRÜNENTHAL GMBH, priority 2012, dated 2016)

What follows are compounds tested against T1, Human CaV2.2 channels (Homo sapiens, UniProt Q00975) (assay: Fluorescent assay for CaV2.2 channels using potassium depolarization to induce channel opening (FLIPR, Fluo-4)). Details: 3 μM test compound, 30 mM KCl, HEK293 cells stably expressing human CaV2.2; read-out: %-Inhib (CaV2.2) @3 μM @30 mM KCl.
T1 construct: expressed in transfected cells
Assay type: cell-based
Procedure, shortened: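 HEK293 cells stably co-expressing CaV2.2 with α2δ and β subunits plus Kir2.3 were Fluo-4 loaded, then preincubated 15 min at 25 °C with compound in 30 mM KCl buffer, pH 7.4. Depolarization was by adding buffer containing 210 mM KCl. Inhibition was taken from baseline-normalized peak fluorescence amplitude (ex 480/em 535 nm).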

T1 sequence (Q00975 whole entry): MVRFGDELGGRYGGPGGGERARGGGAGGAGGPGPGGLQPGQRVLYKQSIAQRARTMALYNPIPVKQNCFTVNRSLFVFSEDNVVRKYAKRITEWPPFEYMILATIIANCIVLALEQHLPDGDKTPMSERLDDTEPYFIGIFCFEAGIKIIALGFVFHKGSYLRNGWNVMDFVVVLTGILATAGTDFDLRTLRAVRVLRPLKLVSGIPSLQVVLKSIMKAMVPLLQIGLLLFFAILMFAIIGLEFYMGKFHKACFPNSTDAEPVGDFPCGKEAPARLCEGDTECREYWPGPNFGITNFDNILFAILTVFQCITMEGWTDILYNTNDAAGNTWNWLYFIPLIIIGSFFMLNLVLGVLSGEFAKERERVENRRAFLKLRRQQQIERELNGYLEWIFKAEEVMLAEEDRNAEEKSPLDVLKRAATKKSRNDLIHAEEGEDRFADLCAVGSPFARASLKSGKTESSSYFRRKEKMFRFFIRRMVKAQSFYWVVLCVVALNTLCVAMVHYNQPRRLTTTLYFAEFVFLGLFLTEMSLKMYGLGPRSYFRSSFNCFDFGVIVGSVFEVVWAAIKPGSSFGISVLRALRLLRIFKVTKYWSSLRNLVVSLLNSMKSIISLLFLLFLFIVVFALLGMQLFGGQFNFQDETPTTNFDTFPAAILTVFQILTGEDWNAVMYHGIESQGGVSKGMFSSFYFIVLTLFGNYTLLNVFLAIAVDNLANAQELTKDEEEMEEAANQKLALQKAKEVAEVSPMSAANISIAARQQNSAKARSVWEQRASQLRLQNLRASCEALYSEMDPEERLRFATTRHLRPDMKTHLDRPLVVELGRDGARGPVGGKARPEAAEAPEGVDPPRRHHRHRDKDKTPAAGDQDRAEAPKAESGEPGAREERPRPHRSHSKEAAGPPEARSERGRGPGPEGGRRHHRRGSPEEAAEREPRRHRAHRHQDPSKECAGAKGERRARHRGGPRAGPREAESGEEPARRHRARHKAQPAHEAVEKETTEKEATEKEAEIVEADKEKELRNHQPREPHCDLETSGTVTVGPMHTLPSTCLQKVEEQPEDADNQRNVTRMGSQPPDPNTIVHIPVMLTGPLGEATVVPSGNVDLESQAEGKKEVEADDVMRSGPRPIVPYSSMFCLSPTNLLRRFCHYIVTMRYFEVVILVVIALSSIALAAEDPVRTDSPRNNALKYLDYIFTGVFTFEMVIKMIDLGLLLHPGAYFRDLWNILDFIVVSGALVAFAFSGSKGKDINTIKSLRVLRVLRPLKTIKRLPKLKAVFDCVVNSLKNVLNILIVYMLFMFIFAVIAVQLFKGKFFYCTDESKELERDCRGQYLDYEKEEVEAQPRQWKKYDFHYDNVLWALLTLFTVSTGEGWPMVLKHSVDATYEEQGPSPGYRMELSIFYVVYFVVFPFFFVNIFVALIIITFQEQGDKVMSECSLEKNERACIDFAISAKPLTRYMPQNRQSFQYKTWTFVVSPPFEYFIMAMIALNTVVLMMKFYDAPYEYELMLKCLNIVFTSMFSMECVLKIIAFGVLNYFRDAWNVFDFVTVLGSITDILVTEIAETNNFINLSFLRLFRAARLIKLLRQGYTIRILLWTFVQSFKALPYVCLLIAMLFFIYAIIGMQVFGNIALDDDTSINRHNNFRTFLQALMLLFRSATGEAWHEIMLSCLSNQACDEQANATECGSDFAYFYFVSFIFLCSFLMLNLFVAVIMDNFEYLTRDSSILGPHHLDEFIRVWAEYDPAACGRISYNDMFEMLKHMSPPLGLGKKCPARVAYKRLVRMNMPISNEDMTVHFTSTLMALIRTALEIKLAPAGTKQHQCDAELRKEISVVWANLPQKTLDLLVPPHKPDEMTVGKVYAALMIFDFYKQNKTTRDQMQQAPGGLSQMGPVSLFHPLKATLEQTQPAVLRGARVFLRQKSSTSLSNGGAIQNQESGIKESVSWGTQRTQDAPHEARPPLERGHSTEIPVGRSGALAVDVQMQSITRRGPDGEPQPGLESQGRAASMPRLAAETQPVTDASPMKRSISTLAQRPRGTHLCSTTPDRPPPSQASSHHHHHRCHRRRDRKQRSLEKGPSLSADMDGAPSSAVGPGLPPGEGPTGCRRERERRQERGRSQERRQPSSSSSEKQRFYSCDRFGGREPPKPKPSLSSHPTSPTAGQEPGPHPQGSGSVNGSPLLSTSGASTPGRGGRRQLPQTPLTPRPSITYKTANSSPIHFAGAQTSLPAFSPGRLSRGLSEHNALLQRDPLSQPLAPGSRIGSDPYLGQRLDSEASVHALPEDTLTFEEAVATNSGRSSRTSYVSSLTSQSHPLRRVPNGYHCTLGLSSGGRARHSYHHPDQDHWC
T1 sequence (P54289 25-1103, further chain): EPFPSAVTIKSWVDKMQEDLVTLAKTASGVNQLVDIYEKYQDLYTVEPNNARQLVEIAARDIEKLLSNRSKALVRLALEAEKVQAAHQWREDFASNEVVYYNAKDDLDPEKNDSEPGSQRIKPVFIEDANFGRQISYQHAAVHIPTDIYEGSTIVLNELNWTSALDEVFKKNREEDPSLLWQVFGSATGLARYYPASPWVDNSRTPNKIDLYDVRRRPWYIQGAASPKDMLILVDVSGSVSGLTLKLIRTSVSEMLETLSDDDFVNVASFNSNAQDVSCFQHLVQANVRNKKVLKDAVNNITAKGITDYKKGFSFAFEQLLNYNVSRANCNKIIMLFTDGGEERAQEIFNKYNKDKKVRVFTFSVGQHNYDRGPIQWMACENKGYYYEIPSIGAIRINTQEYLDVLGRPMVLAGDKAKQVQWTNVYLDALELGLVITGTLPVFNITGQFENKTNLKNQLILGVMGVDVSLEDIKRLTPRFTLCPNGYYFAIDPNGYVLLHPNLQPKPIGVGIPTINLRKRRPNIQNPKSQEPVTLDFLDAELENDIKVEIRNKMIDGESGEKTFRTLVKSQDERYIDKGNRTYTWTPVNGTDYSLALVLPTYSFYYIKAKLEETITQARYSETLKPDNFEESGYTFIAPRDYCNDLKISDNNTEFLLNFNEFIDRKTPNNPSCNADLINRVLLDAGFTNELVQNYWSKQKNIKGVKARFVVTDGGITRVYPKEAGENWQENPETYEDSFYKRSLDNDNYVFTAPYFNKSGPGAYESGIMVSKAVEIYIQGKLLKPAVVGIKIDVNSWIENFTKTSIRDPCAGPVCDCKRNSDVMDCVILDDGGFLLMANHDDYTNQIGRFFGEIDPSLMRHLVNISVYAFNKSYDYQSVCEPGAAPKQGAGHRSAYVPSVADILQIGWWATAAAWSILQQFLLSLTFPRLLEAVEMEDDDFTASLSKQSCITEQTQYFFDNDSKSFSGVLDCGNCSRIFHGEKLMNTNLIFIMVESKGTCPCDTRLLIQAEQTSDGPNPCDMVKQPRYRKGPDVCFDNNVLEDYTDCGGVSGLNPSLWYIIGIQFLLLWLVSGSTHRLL
T1 sequence (P54284 whole entry, further chain): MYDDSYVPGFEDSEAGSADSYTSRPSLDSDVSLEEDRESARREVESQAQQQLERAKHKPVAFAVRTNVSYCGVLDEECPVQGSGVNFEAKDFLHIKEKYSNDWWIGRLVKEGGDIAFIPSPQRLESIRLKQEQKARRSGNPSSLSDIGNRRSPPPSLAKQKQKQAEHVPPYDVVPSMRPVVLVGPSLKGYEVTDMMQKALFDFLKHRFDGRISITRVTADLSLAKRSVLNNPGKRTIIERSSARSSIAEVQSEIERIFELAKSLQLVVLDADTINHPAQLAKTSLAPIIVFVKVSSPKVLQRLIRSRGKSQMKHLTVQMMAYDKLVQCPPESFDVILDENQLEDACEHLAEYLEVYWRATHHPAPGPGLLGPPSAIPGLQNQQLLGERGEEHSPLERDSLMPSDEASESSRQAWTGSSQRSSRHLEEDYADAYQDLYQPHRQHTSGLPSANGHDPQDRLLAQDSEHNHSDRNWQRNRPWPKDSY

| Structure (SMILES) | inhibition at 3 µM |
| --- | --- |
| Cc1c(-c2ccc(Cl)cc2)c(C(=O)N(C)CCC(C)(C)O)n(Cc2ccccc2)c1C(F)(F)F [SC-113, 1-Benzyl-3-(4-chlorophenyl)-N-(3-hydroxy-3-methyl-butyl)-N,4-dimethyl-5-(trifluoromethyl)-1H-pyrrole-2-carboxylic acid amide] | > 95% |
| Cc1c(-c2ccc(Cl)cc2)c(C(=O)N(C)CC2(CO)CC2)n(Cc2ccccc2)c1C(F)(F)F [SC-115, 1-Benzyl-3-(4-chlorophenyl)-N-[[1-(hydroxymethyl)-cyclopropyl]-methyl]-N,4-dimethyl-5-(trifluoromethyl)-1H-pyrrole-2-carboxylic acid amide] | > 95% |
| Cc1c(-c2ccc(Cl)cc2)c(C(=O)N(C)CC2(CO)CCC2)n(Cc2ccccc2)c1C(F)(F)F [SC-116, 1-Benzyl-3-(4-chlorophenyl)-N-[[1-(hydroxymethyl)-cyclobutyl]-methyl]-N,4-dimethyl-5-(trifluoromethyl)-1H-pyrrole-2-carboxylic acid amide] | > 95% |
| Cc1c(-c2ccc(Cl)cc2)c(C(=O)N2CCC(CO)C2)n(Cc2ccccc2)c1C(F)(F)F (centres unmarked) [SC-117, [1-Benzyl-3-(4-chlorophenyl)-4-methyl-5-(trifluoromethyl)-1H-pyrrol-2-yl]-[3-(hydroxymethyl)-pyrrolidin-1-yl]-methanone] | 75 to 95% |
| Cc1c(-c2ccc(Cl)cc2)c(C(=O)N(C)CC(C)(C)CN2CCOCC2)n(Cc2ccccc2)c1C(F)(F)F [SC-118, 1-Benzyl-3-(4-chlorophenyl)-N-(2,2-dimethyl-3-morpholin-4-yl-propyl)-N,4-dimethyl-5-(trifluoromethyl)-1H-pyrrole-2-carboxylic acid amide] | > 95% |
| CCc1c(-c2ccc(Cl)cc2)c(C(=O)N(C)CC(C)(C)C)n(Cc2ccccc2)c1C(F)(F)F [SC-119, 1-Benzyl-3-(4-chlorophenyl)-N-(2,2-dimethyl-propyl)-4-ethyl-N-methyl-5-(trifluoromethyl)-1H-pyrrole-2-carboxylic acid amide] | 75 to 95% |
| CN(CC(C)(C)C)C(=O)c1c(-c2ccc(Cl)cc2)c(C2CC2)c(C(F)(F)F)n1Cc1ccccc1 [SC-120, 1-Benzyl-3-(4-chlorophenyl)-4-cyclopropyl-N-(2,2-dimethyl-propyl)-N-methyl-5-(trifluoromethyl)-1H-pyrrole-2-carboxylic acid amide] | 75 to 95% |
| Cc1c(-c2ccc(Cl)cc2)c(C(=O)N(C)CC2CCOC2)n(Cc2ccccc2)c1C(F)(F)F (centres unmarked) [SC-121, 1-Benzyl-3-(4-chlorophenyl)-N,4-dimethyl-N-(tetrahydro-furan-3-yl-methyl)-5-(trifluoromethyl)-1H-pyrrole-2-carboxylic acid amide] | > 95% |
| Cc1c(-c2ccc(Cl)cc2)c(C(=O)N(C)C(C)(C)CCO)n(Cc2ccccc2)c1C(F)(F)F [SC-122, 1-Benzyl-3-(4-chlorophenyl)-N-(3-hydroxy-1,1-dimethyl-propyl)-N,4-dimethyl-5-(trifluoromethyl)-1H-pyrrole-2-carboxylic acid amide] | > 95% |
| Cc1c(-c2ccc(Cl)cc2)c(C(=O)N2CCC(S(C)(=O)=O)C2)n(Cc2ccccc2)c1C(F)(F)F (centres unmarked) [SC-123, [1-Benzyl-3-(4-chlorophenyl)-4-methyl-5-(trifluoromethyl)-1H-pyrrol-2-yl]-(3-methylsulfonyl-pyrrolidin-1-yl)-methanone] | > 95% |
| Cc1c(-c2ccc(Cl)cc2)c(C(=O)N(C)C(CO)C(C)(C)C)n(Cc2ccccc2)c1C(F)(F)F (centres unmarked) [SC-124, 1-Benzyl-3-(4-chlorophenyl)-N-[1-(hydroxymethyl)-2,2-dimethyl-propyl]-N,4-dimethyl-5-(trifluoromethyl)-1H-pyrrole-2-carboxylic acid amide] | > 95% |
| Cc1c(-c2ccc(Cl)cc2)c(C(=O)N(C)CC(C)(CO)CO)n(Cc2ccccc2)c1C(F)(F)F [SC-125, 1-Benzyl-3-(4-chlorophenyl)-N-[3-hydroxy-2-(hydroxymethyl)-2-methyl-propyl]-N,4-dimethyl-5-(trifluoromethyl)-1H-pyrrole-2-carboxylic acid amide] | > 95% |
| Cc1c(-c2ccc(Cl)cc2)c(C(=O)N(C)C(C)(C)CO)n(Cc2ccccc2)c1C(F)(F)F [SC-126, 1-Benzyl-3-(4-chlorophenyl)-N-(2-hydroxy-1,1-dimethyl-ethyl)-N,4-dimethyl-5-(trifluoromethyl)-1H-pyrrole-2-carboxylic acid amide] | > 95% |
| Cc1c(-c2ccc(Cl)cc2)c(C(=O)N(C)CCCS(C)(=O)=O)n(Cc2ccccc2)c1C(F)(F)F [SC-127, 1-Benzyl-3-(4-chlorophenyl)-N,4-dimethyl-N-(3-methylsulfonyl-propyl)-5-(trifluoromethyl)-1H-pyrrole-2-carboxylic acid amide] | > 95% |
| CCN(CCS(C)(=O)=O)C(=O)c1c(-c2ccc(Cl)cc2)c(C)c(C(F)(F)F)n1Cc1ccccc1 [SC-128, 1-Benzyl-3-(4-chlorophenyl)-N-ethyl-4-methyl-N-(2-methylsulfonyl-ethyl)-5-(trifluoromethyl)-1H-pyrrole-2-carboxylic acid amide] | > 95% |
| Cc1c(-c2ccc(Cl)cc2)c(C(=O)NCCS(C)(=O)=O)n(Cc2ccccc2)c1C(F)(F)F [SC-129, 1-Benzyl-3-(4-chlorophenyl)-4-methyl-N-(2-methylsulfonyl-ethyl)-5-(trifluoromethyl)-1H-pyrrole-2-carboxylic acid amide] | 75 to 95% |
| Cc1c(-c2ccc(Cl)cc2)c(C(=O)N(C)CCS(=O)(=O)C(C)C)n(Cc2ccccc2)c1C(F)(F)F [SC-130, 1-Benzyl-3-(4-chlorophenyl)-N-[2-(isopropylsulfonyl)-ethyl]-N,4-dimethyl-5-(trifluoromethyl)-1H-pyrrole-2-carboxylic acid amide] | > 95% |
| Cc1c(-c2ccc(Cl)cc2)c(C(=O)N(C)C2CCS(=O)(=O)CC2)n(Cc2ccccc2)c1C(F)(F)F [SC-131, 1-Benzyl-3-(4-chlorophenyl)-N-(1,1-dioxo-thian-4-yl)-N,4-dimethyl-5-(trifluoromethyl)-1H-pyrrole-2-carboxylic acid amide] | > 95% |
| CCS(=O)(=O)CCN(C)C(=O)c1c(-c2ccc(Cl)cc2)c(C)c(C(F)(F)F)n1Cc1ccccc1 [SC-132, 1-Benzyl-3-(4-chlorophenyl)-N-[2-(ethylsulfonyl)-ethyl]-N,4-dimethyl-5-(trifluoromethyl)-1H-pyrrole-2-carboxylic acid amide] | > 95% |
| Cc1c(-c2ccc(Cl)cc2)c(C(=O)N(C)CCC2CCCO2)n(Cc2ccccc2)c1C(F)(F)F (centres unmarked) [SC-133, 1-Benzyl-3-(4-chlorophenyl)-N,4-dimethyl-N-(2-tetrahydro-furan-2-yl-ethyl)-5-(trifluoromethyl)-1H-pyrrole-2-carboxylic acid amide] | > 95% |
| Cc1c(-c2ccc(Cl)cc2)c(C(=O)N(C)CC2CCCO2)n(Cc2ccccc2)c1C(F)(F)F (centres unmarked) [SC-134, 1-Benzyl-3-(4-chlorophenyl)-N,4-dimethyl-N-(tetrahydro-furan-2-yl-methyl)-5-(trifluoromethyl)-1H-pyrrole-2-carboxylic acid amide] | > 95% |
| Cc1c(-c2ccc(Cl)cc2)c(C(=O)N(C)CC2CCC[C@@H]2O)n(Cc2ccccc2)c1C(F)(F)F (stereo partly drawn) [SC-135, 1-Benzyl-3-(4-chlorophenyl)-N-[[(2S)-2-hydroxy-cyclopentyl]-methyl]-N,4-dimethyl-5-(trifluoromethyl)-1H-pyrrole-2-carboxylic acid amide] | > 95% |
| Cc1c(-c2ccc(Cl)cc2)c(C(=O)N(C)CC2CCC[C@H]2O)n(Cc2ccccc2)c1C(F)(F)F (stereo partly drawn) [SC-136, 1-Benzyl-3-(4-chlorophenyl)-N-[[(2R)-2-hydroxy-cyclopentyl]-methyl]-N,4-dimethyl-5-(trifluoromethyl)-1H-pyrrole-2-carboxylic acid amide] | > 95% |
| Cc1c(-c2ccc(Cl)cc2)c(C(=O)N2CC(S(C)(=O)=O)C2)n(Cc2ccccc2)c1C(F)(F)F [SC-137, [1-Benzyl-3-(4-chlorophenyl)-4-methyl-5-(trifluoromethyl)-1H-pyrrol-2-yl]-(3-methylsulfonyl-azetidin-1-yl)-methanone] | 75 to 95% |
| Cc1c(-c2ccc(Cl)cc2)c(C(=O)N(C)CC2CCCCO2)n(Cc2ccccc2)c1C(F)(F)F (centres unmarked) [SC-138, 1-Benzyl-3-(4-chlorophenyl)-N,4-dimethyl-N-(tetrahydro-pyran-2-yl-methyl)-5-(trifluoromethyl)-1H-pyrrole-2-carboxylic acid amide] | 75 to 95% |
| Cc1c(-c2ccc(Cl)cc2)c(C(=O)N(C)CC(C)(C)CN(C)CCN2CCCC2)n(Cc2ccccc2)c1C(F)(F)F [SC-139, 1-Benzyl-3-(4-chlorophenyl)-N-[2,2-dimethyl-3-[methyl-(2-pyrrolidin-1-yl-ethyl)-amino]-propyl]-N,4-dimethyl-5-(trifluoromethyl)-1H-pyrrole-2-carboxylic acid amide] | > 95% |
| Cc1cc(CN(C)C(=O)c2c(-c3ccc(Cl)cc3)c(C)c(C(F)(F)F)n2Cc2ccccc2)on1 [SC-140, 1-Benzyl-3-(4-chlorophenyl)-N,4-dimethyl-N-[(3-methyl-isoxazol-5-yl)-methyl]-5-(trifluoromethyl)-1H-pyrrole-2-carboxylic acid amide] | > 95% |
| Cc1c(-c2ccc(Cl)cc2)c(C(=O)N(C)C(C)CS(C)(=O)=O)n(Cc2ccccc2)c1C(F)(F)F (centres unmarked) [SC-141, 1-Benzyl-3-(4-chlorophenyl)-N,4-dimethyl-N-(1-methyl-2-methylsulfonyl-ethyl)-5-(trifluoromethyl)-1H-pyrrole-2-carboxylic acid amide] | > 95% |
| Cc1cc(CN(C)C(=O)c2c(-c3ccc(Cl)cc3)c(C)c(C(F)(F)F)n2Cc2ccccc2)no1 [SC-142, 1-Benzyl-3-(4-chlorophenyl)-N,4-dimethyl-N-[(5-methyl-isoxazol-3-yl)-methyl]-5-(trifluoromethyl)-1H-pyrrole-2-carboxylic acid amide] | > 95% |
